Molecules are shown by their SMILES. In brackets after ≈: the same amount, converted by molar mass.

The test system of one data set is A498. The experiment in a line: Cytotoxicity against human A498 cells. In kind it is functional.
Another data set deals with MIA PaCa-2. The data set is described as follows: Cytotoxicity against human MIAPaCa2 cells. In kind it is functional.
The test system of the next data set is MCF7. The experiment in a line: Cytotoxicity against human MCF7 cells. Type of data set: functional. The conditions noted are these: read-out: ED50 (the source's name).
The subject of another data set is HT-29. The data set is described as follows: Cytotoxicity against human HT29 cells. In kind it is functional. Particulars: read-out: ED50 (the source's name).
The subject of another data set is A549. The data set is described as follows: Cytotoxicity against human A549 cells. Type of data set: functional.
The next data set deals with PC-3. The experiment in a line: Cytotoxicity against human PC3 cells. In kind it is functional.
A short description of data set [1]: Toxicity in brine shrimp. Type of data set: organism-based. The conditions noted are these: artemia, in vivo.

Turning to `COc1cccc2c1C(=O)c1c(O)c3c(c(O)c1C2=O)C[C@@](O)(C(=O)CO)C[C@@H]3O[C@H]1C[C@H](N)[C@H](O)[C@H](C)O1` [DOXORUBICIN], the EC50 in the data set with A498 (Homo sapiens, A498, read-out: ED50 (the source's name)) is 0.0019 µg/mL (≈ 0.0035 µM); in the data set on MIA PaCa-2 (Homo sapiens, MIA PaCa-2, read-out: ED50 (the source's name)), 0.0224 µg/mL (≈ 0.0412 µM); in the data set with MCF7, 0.0968 µg/mL (≈ 0.178 µM); with HT-29, 0.0193 µg/mL (≈ 0.0355 µM); with A549 (Homo sapiens, A549, read-out: ED50 (the source's name)) it was 0.00157 µg/mL (≈ 0.00289 µM); in the data set with PC-3 (Homo sapiens, PC-3, read-out: ED50 (the source's name)), 0.0281 µg/mL (≈ 0.0517 µM).

One may read the LC50 as the concentration lethal to half of the exposed cells or organisms. On to `CCCCCCCCCCCC[C@H](O)[C@H]1CC[C@H]([C@H](O)CC[C@H](O)CCCCCCCCC[C@@H](O)CC2=C[C@H](C)OC2=O)O1` [ROLLINECIN A], for which the ED50 was found to be 7.25 ×10⁻⁴ ug/ml in the data set on A498, 3.47 ×10⁻⁵ ug/ml in the data set on MIA PaCa-2, 1.14 ×10⁻⁴ ug/ml in the data set on A549 and 2.62 ×10⁻⁴ ug/ml in the data set with PC-3. Besides, the LC50 in data set [1] came out at 0.31 µg/mL (≈ 0.496 µM). Besides, the EC50 was 1.44 µg/mL (≈ 2.3 µM) in the data set with MCF7 and 1.6 µg/mL (≈ 2.56 µM) with HT-29.

For `CCCCCCCCCCCC[C@H](O)[C@H]1CC[C@H]([C@H](O)CC[C@@H](O)CCCCCCCCC[C@@H](O)CC2=C[C@H](C)OC2=O)O1` [ROLLINECIN B], the ED50 in the data set on A498 was found to be 2.29 ×10⁻⁴ ug/ml; in the data set with MIA PaCa-2, 2.53 ×10⁻⁴ ug/ml; in the data set with A549, 4.23 ×10⁻⁴ ug/ml; in the data set with PC-3, 3.62 ×10⁻⁴ ug/ml. This compound came in with a median lethal concentration (LC50) in data set [1] of 0.13 µg/mL (≈ 0.208 µM). Further, the EC50 amounted to 2.72 µg/mL (≈ 4.35 µM) with MCF7 and 1.44 µg/mL (≈ 2.3 µM) in the data set with HT-29.

Source of the values: ChEMBL document CHEMBL1158214, “Rollinecins A and B: two new bioactive annonaceous acetogenins from Rollinia mucosa” (J Nat Prod, 1996).
